Measurements from patent US20230270753A1, “COMBINATIONS OF GABAA ALPHA 5 AGONISTS AND SV2A INHIBITORS AND METHODS OF USING IN THE TREATMENT OF COGNITIVE IMPAIRMENT” (AGENEBIO, INC., priority 2020, published 2023).
Like-named read-outs stand apart in the source and are kept apart here.

How the values were obtained:
Assay type in all cases: in vivo, rat
aged-impaired rats [1] = tested on: aged-impaired rats
aged-impaired rats [2] = assay: Water maze, acute and chronic Compound 1 (Example 7); settings: Compound 1 10 mg/kg IP
Text: Rats were trained and tested in a novel water maze environment to assess the effect of the treatments. The water maze used here was housed in a different room and was surrounded by curtains with a novel set of patterns relative to the maze used for initial assessment of cognitive status. The training and testing protocol used was identical to the spatial learning-activated protocol described in Haberman et al., (2008, Proceedings of the National Academy of Sciences USA, 105, 10601-10606). The task required rats to swim to a […] escape platform at a fixed location in the presence of spatial cues for 8 training trials with an inter-trial interval of 8 min. An hour after the last training trial, rats were given a probe test in the absence of the escape platform (free swim) to assess the memory of the platform location as measured by time spent searching at the target location.
To assess the acute and chronic effects of Compound 1 treatment, rats received 15-16 days of drug injections with assessment on the water maze on the first day (acute effect) and last day (chronic effect) of treatment. Different surrounding spatial cues and escape location in the water maze were used for the initial and subsequent assessments. Compound 1 was given at 10 mg/kg using intraperitoneal injection (IP) at a volume of 1 ml/kg. […]

aged-impaired rats [3] = assay: Radial arm maze, 5-hr delay, acute Compound 1 via PO (Example 7); settings: Compound 1 10 mg/kg PO 30-40 min before information trial
Text: All rats were screened in a standardized assessment of spatial cognition before the commencement of drug studies. The background assessment used a well-established Morris water maze protocol as described in detail elsewhere (Gallagher et al, 1993). Briefly, the rats were trained for 8 days (three trials per day) to locate a camouflaged escape platform that remained at the same location throughout training in a water maze. Every sixth trial consisted of a probe trial (free swim with no escape platform) that served to assess the development of a spatially localized search for the escape platform. During these probe trials, a learning index was generated from the proximity of the rat to the escape platform and was used to define impairment in the aged rats. The learning index is the sum of weighted proximity scores obtained during probe trials, with low scores reflecting a search near the escape platform and high scores reflecting searches farther away from the platform (Gallagher et al, 1993). Cue training (visible escape platform) occurred on the last day of training to test for sensorimotor and motivational factors independent of spatial learning. Aged rats with impaired spatial memory performance (i.e., those with learning index scores outside the young ‘normative’ range) but successful cued training performance were used for the studies as described below. […]

COCc1nnc2n1Cc1c(C#Cc3cnc(OC)s3)ncn1-c1ccc(Cl)cc1-2 [Compound 1]
efficacy of Compound 1 on its own in the radial arm maze (aged-impaired rats [1]; Compound 1 2.5 mg/kg IP alone): subtherapeutic | efficacy of Compound 1 on its own in the radial arm maze (aged-impaired rats [1]; Compound 1 5 mg/kg IP alone): subtherapeutic | time spent in the target quadrant of the Morris Water Maze (aged-impaired rats [2]; acute (first day of treatment)): spent more time in the target quadrant | time spent in the target quadrant of the Morris Water Maze (aged-impaired rats [2]; chronic (last day of 15-16 days of injections)): spent more time in the target quadrant | number of errors in the radial arm maze vs vehicle (aged-impaired rats [3]): fewer errors
